Laboratory results published in patent US6706718B2, “3-(2,4-dimethylthiazol-5-yl)indeno[1,2-c]pyrazol-4-one derivatives and their uses” (Bristol-Myers Squibb Company, priority 2000, dated 2004).
Structures can show the parent of a compound that is named as a salt.

| melting point [°C] | Compound |
| --- | --- |
| > 300 | Cc1nc(C)c(-c2[nH]nc3c2C(=O)c2c(NC(=O)NN4CCOCC4)cccc2-3)s1 (as salt: TFA) [Example 2, 3-(2,4-dimethylthiazol-5-yl)-5-(morpholinocarbamoylamino)indeno[1,2-c]pyrazol-4-one] |
| 278 | Cc1nc(C)c(-c2[nH]nc3c2C(=O)c2c(NC(=O)NN4CCN(C)CC4)cccc2-3)s1 (as salt: hydrochloride) |
